Assay results as given in patent publication US11602534B2, “Pyrimidine derivative kinase inhibitors” (HEFEI INSTITUTES OF PHYSICAL SCIENCE, CHINESE ACADEMY OF …, priority 2017, dated 2023).

Columns and labels:
BaF3 = test: Proliferation of BaF3 cells, CCK8 cell viability assay; format: cell-based; details: Mus musculus, 72 hours
In short: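 Murine BaF3 lines carry retrovirally transduced human kinase domains fused to an N-terminal TEL fragment (cKIT, PDGFRα or PDGFRβ), and IL-3 is withdrawn so their growth depends on the fused kinase; parental BaF3 serves as the reference line. Living cells were quantified by CCK8 dehydrogenase activity, giving GI50 in μM.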

P210-BaF3 = test: Proliferation of P210-BaF3 cells, CCK8 cell viability assay; format: cell-based; details: Mus musculus, 72 hours, stably expressing BCR-ABL mutant activated kinase
In short: (§1)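 Human kinase-region sequences were PCR-amplified, fused behind N-terminal TEL in MSCV-Puro and stably introduced into mouse BaF3 by retrovirus. IL-3 was then removed to give kinase-dependent lines. Compound effects on these and on parental BaF3 are scored as GI50 (μM) via CCK8 viable-cell quantification.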

P210/T315I-BaF3 = test: Proliferation of P210/T315I-BaF3 cells, CCK8 cell viability assay; format: cell-based; details: Mus musculus, 72 hours, stably expressing BCR-ABL/T315I
Source text: (§2) In this example the following cells were used: […] (purchased from ATCC), mouse P210-BaF3 (stably expressing BCR-ABL mutant activated kinase), mouse P210/T315I-BaF3 (stably expressing BCR-ABL/T315I mutant activated kinase), mouse FLT3-ITD-BaF3 (stably expressing FLT3/ITD mutant activated kinase), mouse TEL-FLT3-BaF3 (stably expressing FLT3 kinase), mouse TEL-cKIT-BaF3 (stably expressing cKIT kinase), mouse BaF3-tel/T670I-cKit (stably expressing cKIT/T670I mutant activated kinase), mouse Tel-VEGFR2-BaF3 (stably expressing VEGFR2 kinase), mouse Tel-PDGFRα-BaF3 (stably expressing PDGFRα kinase), mouse Tel-PDGFRβ-BaF3 (stably expressing PDGFRβ kinase), mouse Tel-RET-BaF3 (stably expressing RET kinase). The above cell lines were all constructed by our laboratory according to the following method: the kinase region sequences of human P210, P210/T315I, FLT3/ITD, FLT3, cKIT, cKIT/T670I, VEGFR2, PDGFRα, PDGFRβ, RET were respectively amplified by PCR, and inserted into MSCV-Puro vectors having N-terminal TEL or TPR fragments (Clontech). The vectors were stably transfected into mouse BaF3 cells by means of retrovirus, and the growth factor IL-3 were removed, eventually obtaining cell lines that depend on transferred protein P210, P210/T315I, FLT3/ITD, FLT3, cKIT, cKIT/T670I, VEGFR2, PDGFRα, PDGFRβ, or RET.
(§3) GI50 (unit: μM) was calculated by quantifying the number of living cells based on quantitative measurement of reductive dehydrogenase in living cells with CCK8 cell viability assay kit (Bestbio, China).

Tel-cKit-BaF3 = test: Proliferation of Tel-cKit-BaF3 cells, CCK8 cell viability assay; format: cell-based, mouse; details: Mus musculus; 72 hours, CCK8; stably expressing cKIT kinase
In short: (§4)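 Parental murine BaF3 and IL-3-independent BaF3 transformants driven by TEL–cKIT, TEL–PDGFRα or TEL–PDGFRβ, with human kinase domains stably transduced by retrovirus. CCK8 dehydrogenase read-out gives GI50 (μM).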

Tel-cKit/T670I-BaF3 = test: Proliferation of Tel-cKit/T670I-BaF3 cells, CCK8 cell viability assay; format: cell-based; details: Mus musculus, 72 hours, stably expressing cKIT/T670I
In short: as §4

Tel-FLT3-BaF3 = test: Proliferation of Tel-FLT3-BaF3 cells, CCK8 cell viability assay; format: cell-based; details: Mus musculus, 72 hours, stably expressing FLT3 kinase
In short: as §1

FLT3-ITD-BaF3 = test: Proliferation of FLT3-ITD-BaF3 cells, CCK8 cell viability assay; format: cell-based; details: Mus musculus, 72 hours, stably expressing FLT3/ITD
In short: as §1

Tel-RET-BaF3 = test: Proliferation of Tel-RET-BaF3 cells, CCK8 cell viability assay; format: cell-based; details: Mus musculus, 72 hours, stably expressing RET kinase
Source text: as §2, §3

TEL-PDGFRα-BaF3 = test: Proliferation of TEL-PDGFRα-BaF3 cells, CCK8 cell viability assay; format: cell-based; details: Mus musculus, 72 hours, stably expressing PDGFRα kinase
In short: as §4

TEL-PDGFRβ-BaF3 = test: Proliferation of TEL-PDGFRβ-BaF3 cells, CCK8 cell viability assay; format: cell-based; details: Mus musculus, 72 hours, stably expressing PDGFRβ kinase
In short: as §4

TEL-VEGFR2-BaF3 = test: Proliferation of TEL-VEGFR2-BaF3 cells, CCK8 cell viability assay; format: cell-based; details: Mus musculus, 72 hours, stably expressing VEGFR2 kinase
In short: as §1

Row | SMILES | GI50 (BaF3) | GI50 (P210-BaF3) | GI50 (P210/T315I-BaF3) | GI50 (Tel-cKit-BaF3) | GI50 (Tel-cKit/T670I-BaF3) | GI50 (Tel-FLT3-BaF3) | GI50 (FLT3-ITD-BaF3) | GI50 (Tel-RET-BaF3) | GI50 (TEL-PDGFRα-BaF3) | GI50 (TEL-PDGFRβ-BaF3) | GI50 (TEL-VEGFR2-BaF3)
1 | COCCNc1cc(O[C@H]2CC[C@H](NC(=O)Nc3ccc(C)c(C(F)(F)F)c3)CC2)ncn1 [Example 43, 1-((1R,4R)-4-((6-((2-methoxyethyl)amino)pyrimidin-4-yl)oxy)cyclohexyl)-3-(4-methyl-3-(trifluoromethyl)phenyl)urea] | > 10 µM | 6.96 µM | 5.21 µM | 5.3 µM | 1.12 µM | 0.305 µM | 0.199 µM | 3.4 µM | 0.023 µM | 0.252 µM | 2.6 µM
2 | CC(C)C(=O)Nc1cc(Oc2ccc(NC(=O)Cc3ccccc3C(F)(F)F)cc2)ncn1 [Example 49, N-(6-{4-[2-(2-trifluoromethyl-phenyl)-acetylamino]-phenoxy}-pyrimidin-4-yl)-isobutyramide] | > 10 µM | > 10 µM | > 10 µM | > 10 µM | > 10 µM | 2.58 µM | 1.97 µM | > 10 µM | 0.059 µM | 0.145 µM | 6.11 µM
3 | COc1ccc(CNc2cc(Oc3ccc(NC(=O)Nc4ccc(CN5CCNCC5)c(C(F)(F)F)c4)cc3)ncn2)cc1 [Example 180, 1-{4-[6-(4-methoxy-benzylamino)-pyrimidin-4-yloxy]-phenyl}-3-(4-piperazin-1-ylmethyl-3-trifluoromethyl-phenyl)-urea] | 9.01 µM | – | 1.72 µM | 0.33 µM | 2.85 µM | 0.022 µM | 0.003 µM | 0.331 µM | 0.112 µM | 0.315 µM | 0.039 µM
4 | COc1cc(CC(=O)Nc2ccc(Oc3cc(NC(C)=O)ncn3)cc2)ccc1O [Example 11, N-[4-(6-acetylamino-pyrimidin-4-yloxy)-phenyl]-2-(4-hydroxy-3-methoxy-phenyl)-acetamide] | > 10 µM | > 10 µM | > 10 µM | > 10 µM | > 10 µM | 1.1 µM | 0.346 µM | > 10 µM | 0.227 µM | 0.271 µM | 1.52 µM
5 | Cc1ccc(NC(=O)NC2CCC(Oc3cc(NCCN)ncn3)CC2)cc1C(F)(F)F (centres unmarked) [Example 128, 1-{4-[6-(2-amino-ethylamino)-pyrimidin-4-yloxy]-cyclohexyl}-3-(4-methyl-3-trifluoromethyl-phenyl)-urea] | > 10 µM | > 10 µM | 8.73 µM | 8.47 µM | 0.641 µM | 0.15 µM | 0.087 µM | 3.87 µM | 0.11 µM | 0.15 µM | 1.19 µM
6 | CC(=O)Nc1cc(Oc2ccc(NC(=O)Cc3cc(F)cc(F)c3)cc2)ncn1 [Example 173, N-[4-(6-acetylamino-pyrimidin-4-yloxy)-phenyl]-2-(3,5-difluoro-phenyl)-acetamide] | > 10 µM | > 10 µM | > 10 µM | 3.6 µM | > 10 µM | 0.51 µM | 0.092 µM | > 10 µM | 0.014 µM | 0.039 µM | 1.4 µM
7 | COc1ccccc1CC(=O)Nc1ccc(Oc2cc(NC(C)=O)ncn2)cc1 [Example 24, N-[4-(6-acetylamino-pyrimidin-4-yloxy)-phenyl]-2-(2-methoxy-phenyl)-acetamide] | > 10 µM | > 10 µM | > 10 µM | > 10 µM | > 10 µM | 1.76 µM | 0.331 µM | > 10 µM | 0.077 µM | 0.356 µM | 3.1 µM
8 | COCCNc1cc(Oc2ccc(NC(=O)Nc3ccc(C(F)(F)F)cc3)cc2)ncn1 [Example 73, 1-{4-[6-(2-methoxy-ethylamino)-pyrimidin-4-yloxy]-phenyl}-3-(4-trifluoromethyl-phenyl)-urea] | > 10 µM | > 10 µM | > 10 µM | 5.68 µM | > 10 µM | 1.57 µM | 0.17 µM | > 10 µM | 0.165 µM | 0.154 µM | –
